Measurements reported in patent publication US9925222B2, “Gut barrier dysfunction treatment and prevention” (ALBERT EINSTEIN COLLEGE OF MEDICINE OF YESHIVA UNIVERSITY, priority 2012, dated 2018).

Legend:
[1] = target: T1, human PXR (hPXR) (Homo sapiens, UniProt O75469); assay: In vitro transcription assay, PXR reporter gene (MRP2 luciferase) with hPXR expression plasmid in 293T cells
T1 sequence (O75469 1-434): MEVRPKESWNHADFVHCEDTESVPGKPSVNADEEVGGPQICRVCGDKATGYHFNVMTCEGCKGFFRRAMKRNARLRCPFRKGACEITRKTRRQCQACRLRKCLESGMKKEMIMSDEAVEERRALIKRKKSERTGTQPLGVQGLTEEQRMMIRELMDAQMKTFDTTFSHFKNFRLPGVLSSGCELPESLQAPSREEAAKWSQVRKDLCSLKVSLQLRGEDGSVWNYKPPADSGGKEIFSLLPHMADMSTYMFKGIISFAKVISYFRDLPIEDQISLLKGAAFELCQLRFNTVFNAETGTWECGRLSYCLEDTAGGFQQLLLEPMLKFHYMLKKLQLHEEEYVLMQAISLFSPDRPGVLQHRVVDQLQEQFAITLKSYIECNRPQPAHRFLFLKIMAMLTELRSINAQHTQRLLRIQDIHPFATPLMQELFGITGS
Description: These assays were performed in 293T cells as previously published (33). In brief, transient transfection by lipofectamine (Invitrogen) were carried out in 293T cells with plasmids expressing human PXR (hPXR), mouse PXR (mPXR), GAL4-FXR, GAL4-LXR, GAL4-PPARγ and mouse CAR (mCAR) with respective reporter plasmids (Tk-MRP2-luciferase, Tk-MH100-luciferase, CYP2B10-luciferase) and Renilla. For TLR4 promoter luciferase transcription assay, TLR4 promoter reporter construct (a gift from Dr. Michael Rehli of University of Regensburg, Germany) was transfected along with human PXR, mouse PU.1 expression plasmids and Renilla. […] The cells were harvested in passive lysis buffer (Promega) and luciferase activity was detected using the dualluciferase reporter assay system from Promega in 20 μl of cell lysate using the Turner Biosystems 20/20 n Luminometer. Assays were performed at least two independent times each in triplicates.

[2] = target: T2, mouse PXR (mPXR) (Mus musculus, UniProt O54915); assay: In vitro transcription assay, PXR reporter gene (MRP2 luciferase) with mPXR expression plasmid in 293T cells; assay type: cell-based
T2 construct: expressed in transfected cells; host or cells: 293T cells
T2 sequence (O54915 1-431): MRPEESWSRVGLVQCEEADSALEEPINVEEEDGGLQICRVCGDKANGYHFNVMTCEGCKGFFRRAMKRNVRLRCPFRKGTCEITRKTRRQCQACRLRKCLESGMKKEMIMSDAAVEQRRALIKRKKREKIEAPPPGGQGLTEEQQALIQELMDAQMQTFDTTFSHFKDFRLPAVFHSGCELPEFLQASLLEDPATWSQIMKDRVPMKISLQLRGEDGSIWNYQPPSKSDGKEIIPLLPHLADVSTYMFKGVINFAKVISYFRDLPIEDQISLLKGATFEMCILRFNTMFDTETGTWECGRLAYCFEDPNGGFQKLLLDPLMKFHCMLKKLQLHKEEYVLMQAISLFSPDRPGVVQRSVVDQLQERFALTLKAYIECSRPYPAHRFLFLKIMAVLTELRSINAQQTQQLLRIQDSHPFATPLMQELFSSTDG
Description: These assays were performed in 293T cells as previously published (33). In brief, transient transfection by lipofectamine (Invitrogen) were carried out in 293T cells with plasmids expressing human PXR (hPXR), mouse PXR (mPXR), GAL4-FXR, GAL4-LXR, GAL4-PPARγ and mouse CAR (mCAR) with respective reporter plasmids (Tk-MRP2-luciferase, Tk-MH100-luciferase, CYP2B10-luciferase) and Renilla. […] The cells were harvested in passive lysis buffer (Promega) and luciferase activity was detected using the dualluciferase reporter assay system from Promega in 20 μl of cell lysate using the Turner Biosystems 20/20 n Luminometer. Assays were performed at least two independent times each in triplicates.

[3] = target: T3, mPXR ligand binding domain (Mus musculus, UniProt O54915); assay: LanthaScreen TR-FRET PXR competitive binding assay, mPXR LBD; details: read-out: EC50 for ligand displacement in mPXR
T3 construct: made in house
T3 sequence (O54915 143-430 limits assumed): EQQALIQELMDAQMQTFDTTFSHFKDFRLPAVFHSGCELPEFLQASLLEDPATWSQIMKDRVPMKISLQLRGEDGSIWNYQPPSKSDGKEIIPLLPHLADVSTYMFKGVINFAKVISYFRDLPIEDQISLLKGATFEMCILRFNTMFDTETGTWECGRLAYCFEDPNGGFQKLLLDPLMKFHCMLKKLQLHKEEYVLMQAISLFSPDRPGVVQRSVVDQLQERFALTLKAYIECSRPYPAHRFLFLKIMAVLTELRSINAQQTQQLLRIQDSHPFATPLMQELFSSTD
Description: A LanthaScreen TR-FRET PXR Competitive Binding Assay was conducted according to the manufacturer's protocol (Invitrogen) as previously published (14). Briefly, serial dilutions of indole 3-propionic acid (diluted in TR-FRET PXR Assay Buffer, Invitrogen) were dispensed into triplicate wells of a black, non-treated 384 well plate (Corning Life Sciences). Subsequently, 5 μl of Fluormone PXR Green was added into each well. Finally, 5 μl of a master mix containing hPXR ligand binding domain (LBD), terbium labeled anti-glutathione S transferase (final concentration 10 nM) and dithiothreitol (final concentration 0.05 mM) was added into each well. For mPXR ligand binding domain, GST tagged mPXR LBD was purified using Glutathione Sepharose 4 Fast Flow beads (GE Health Care) in Poly-Prep Chromatography columns (Bio-Rad). hPXR LBD of the assay kit was replaced with the similar concentrations of mPXR LBD. The content was mixed briefly (10 s) and incubated in dark at room temperature for 1 h. TR-FRET was measured using SpectraMaxR M5 microplate reader (Molecular Devices) with the excitation wavelength of 340 nm and emission wavelengths of 520 and 495 nm. TR-FRET ratio was calculated by dividing the emission signal at 520 nm by emission signal at 495 nm. Data are expressed as percentage TR-FRET ratio. Error bars represent s.e.m of duplicate wells from two separate experiments.

[4] = test system: PXR target gene transcription (Mdr-1); assay: PXR target gene (Mdr-1) qPCR in jejunum apical enterocytes after oral IPA; assay type: in vivo, mice; details: oral IPA 20 mg/kg; Mdr-1, jejunum apical enterocytes
Description: 2.0 μg of total RNA extracted from pooled apical enterocytes with TRIzolR (Invitrogen), were reverse transcribed with random hexamer primers and SuperScript™ III-RT enzyme (Invitrogen). Quantitative PCR (qPCR) reactions using TaqMan universal PCR master mix and TaqMan probes containing FAM as the 5′ reporter fluorochrome and tetramethylrhodamine (MGB) as the 3′ quencher fluorochrome, were performed in triplicate for each sample and analyzed on the ABI Prism 7900HT system. […] Controls include RT-minus RNA samples. PCR reaction conditions for all assays were set at 50° C. for 2 minutes, 95° C. for 10 minutes, followed by 40 cycles of amplification (95° C. for 15 seconds then 60° C. for 1 minute). Experiments were performed at least two independent times each in triplicates.

SMILES: O=C(O)CCc1c[nH]c2ccccc12 [IPA, indole-3-propionic acid]
- EC50 [1]: 120000 nM
- Emax, hPXR transcription assay ([1]; IPA alone, MRP2 luciferase, 293T cells): 6.38 fold over control
- hPXR activation in combination with indole ([1]; fixed concentration of indole (1 mM), increasing concentrations of metabolite): significantly activates hPXR
- EC50 [2]: 550 nM
- Emax, mPXR transcription assay [2]: 18.84 fold over control
- EC50 [3]: 1100 nM
- PXR target gene transcription in vivo [4]: induces PXR target gene transcription in vivo
